The source of these data is patent US4298610A, “Ester derivatives of quinolopyran-4-one-2-carboxylic acids and antiallergic antasthmatics” (priority 1978, dated 1981).

Molecules are shown by their SMILES.

The first experiment deals with passive cutaneous anaphylaxis. As to the kind of experiment: passive cutaneous anaphylaxis test (P.C.A.) on rats, oral administration. In kind it is in vivo, rat (SLC Wister). The note with it: 0.5 h, rat, 30 mg/kg, antigen 30 minutes after administration, read-out: Percent inhibition (%). How it is done: Various 5-hydroxy-quinolopyran-4-one-2-carboxylic acid esters in terms of the R group represented by the general formula [I] were prepared. […] In order to estimate the efficacy of each compound as an anti-allergic antasthmatic, the efficacy was evaluated according to a passive cutaneous anaphylaxis test (P.C.A.) on rats.
To SLC Wister rats were administered intracutaneously egg white albumin recrystallized 5 times and Bodetallapertussis Vaccine, and serum was collected after 13 days from the rats. […] A physiological salt solution in which egg white albumin and a dye (Evans' blue) were dissolved was administered intravenously, 30 minutes after the oral administration, to the rats; and 30 minutes thereafter the back skins of the rats were peeled off. The dye that transuded from the peeled skin was extracted with Na2 SO4 and acetone, and the quantities of the dye were measured by colorimetry at 620 m μ.
Regarding `Cc1ccc2nc(O)c3c(=O)cc(C(=O)OCC(C)(C)C)oc3c2c1` [2,2-dimethyl-1-propyl ester of 9-methyl-5-hydroxy-quinolo[4,3-b]pyran-4-one-2-carboxylic acid], the inhibition in vivo at 30 mg/kg came to 58.4%. On the same count and under the same terms, to `CC(C)CCOC(=O)c1cc(=O)c2c(O)nc3ccc(Cl)cc3c2o1` [3-methyl-1-butyl ester of 9-chloro-5-hydroxy-quinolo[4,3-b]pyran-4-one-2-carboxylic acid] belongs 59.5%; to `CCCCC(C)OC(=O)c1cc(=O)c2c(O)nc3c(C)c(C)ccc3c2o1` (stereo not drawn) [2-hexyl ester of 7,8-dimethyl-5-hydroxy-quinolo[4,3-b]pyran-4-one-2-carboxylic acid], 94.7%. Regarding `CCC(CC)COC(=O)c1cc(=O)c2c(O)nc3c(C)c(C)ccc3c2o1` [2-ethyl-1-butyl ester of 7,8-dimethyl-5-hydroxy-quinolo[4,3-b]pyran-4-one-2-carboxylic acid, reference compound], the inhibition in vivo at 30 mg/kg is 49.1%. The same measure, in the same setting: under `CCC(CC)OC(=O)c1cc(=O)c2c(O)nc3c(C)c(C)ccc3c2o1` [3-pentyl ester of 7,8-dimethyl-5-hydroxy-quinolo[4,3-b]pyran-4-one-2-carboxylic acid] stands 65.3%; under `CCCC(C)OC(=O)c1cc(=O)c2c(O)nc3c(C)c(C)ccc3c2o1` (stereo not drawn) [2-pentyl ester of 7,8-dimethyl-5-hydroxy-quinolo[4,3-b]pyran-4-one-2-carboxylic acid], 95.1%; under `CCCCCCCCOC(=O)c1cc(=O)c2c(O)nc3c(C)c(C)ccc3c2o1` [n-octyl ester of 7,8-dimethyl-5-hydroxy-quinolo[4,3-b]pyran-4-one-2-carboxylic acid, reference compound], 39.3%. Take `CCCC(CC)OC(=O)c1cc(=O)c2c(O)nc3ccc(C)cc3c2o1` (stereo not drawn) [3-hexyl ester of 9-methyl-5-hydroxy-quinolo[4,3-b]pyran-4-one-2-carboxylic acid]: the inhibition in vivo at 30 mg/kg is 81.8%. The same measure, in the same setting: to `Cc1ccc2c(nc(O)c3c(=O)cc(C(=O)OCCCC(C)C)oc32)c1C` [4-methyl-1-pentyl ester of 7,8-dimethyl-5-hydroxy-quinolo[4,3-b]pyran-4-one-2-carboxylic acid] belongs 78.5%; to `Cc1ccc2c(nc(O)c3c(=O)cc(C(=O)OCC(C)C)oc32)c1C` [2-methyl-1-propyl ester of 7,8-dimethyl-5-hydroxy-quinolo[4,3-b]pyran-4-one-2-carboxylic acid, reference compound], 2.5%. Same read-out and setting: to `Cc1ccc2c(nc(O)c3c(=O)cc(C(=O)OCCCc4ccccc4)oc32)c1C` [3-phenyl-1-propyl ester of 7,8-dimethyl-5-hydroxy-quinolo[4,3-b]pyran-4-one-2-carboxylic acid, reference compound] belongs -7.2%; to `CCC(OC(=O)c1cc(=O)c2c(O)nc3c(C)c(C)ccc3c2o1)C(C)C` (stereo not drawn) [2-methyl-3-pentyl ester of 7,8-dimethyl-5-hydroxy-quinolo[4,3-b]pyran-4-one-2-carboxylic acid, reference compound], 32.1%; to `Cc1ccc2c(nc(O)c3c(=O)cc(C(=O)OC4CCCCC4)oc32)c1C` [1-cyclohexyl ester of 7,8-dimethyl-5-hydroxy-quinolo[4,3-b]pyran-4-one-2-carboxylic acid, reference compound], 33.7%. Still for that read-out and setting: under `Cc1ccc2c(nc(O)c3c(=O)cc(C(=O)OC(C)C)oc32)c1C` [isopropyl ester of 7,8-dimethyl-5-hydroxy-quinolo[4,3-b]pyran-4-one-2-carboxylic acid, reference compound] stands 7.3%; under `CCCCCOC(=O)c1cc(=O)c2c(O)nc3c(C)c(C)ccc3c2o1` [n-pentyl ester of 7,8-dimethyl-5-hydroxy-quinolo[4,3-b]pyran-4-one-2-carboxylic acid, reference compound], 26.5%; under `Cc1ccc2c(nc(O)c3c(=O)cc(C(=O)OC(C)C(C)C)oc32)c1C` (stereo not drawn) [3-methyl-2-butyl ester of 7,8-dimethyl-5-hydroxy-quinolo[4,3-b]pyran-4-one-2-carboxylic acid, reference compound], 22.6%.

`COc1cc2nc(O)c3c(=O)cc(C(=O)OCCC(C)C)oc3c2cc1OC` [3-methyl-1-butyl ester of 8,9-dimethoxy-5-hydroxy-quinolo[4,3-b]pyran-4-one-2-carboxylic acid]: the inhibition in vivo at 30 mg/kg was 67.3%. The same measure, in the same setting: under `CCCC(CC)OC(=O)c1cc(=O)c2c(O)nc3c(C)c(C)ccc3c2o1` (stereo not drawn) [3-hexyl ester of 7,8-dimethyl-5-hydroxy-quinolo[4,3-b]pyran-4-one-2-carboxylic acid] stands 96.1%; under `CCCCCCCCCCOC(=O)c1cc(=O)c2c(O)nc3c(C)c(C)ccc3c2o1` [n-decyl ester of 7,8-dimethyl-5-hydroxy-quinolo[4,3-b]pyran-4-one-2-carboxylic acid, reference compound], 4.7%. Take `CCCC(C)OC(=O)c1cc(=O)c2c(O)nc3ccc(C)cc3c2o1` (stereo not drawn) [2-pentyl ester of 9-methyl-5-hydroxy-quinolo[4,3-b]pyran-4-one-2-carboxylic acid]: the inhibition in vivo at 30 mg/kg was 70%.

As for `CCCCCCOC(=O)c1cc(=O)c2c(O)nc3c(C)c(C)ccc3c2o1` [n-hexyl ester of 7,8-dimethyl-5-hydroxy-quinolo[4,3-b]pyran-4-one-2-carboxylic acid], the inhibition in vivo at 30 mg/kg is 72%. On the same count and under the same terms, to `CCC(C)COC(=O)c1cc(=O)c2c(O)nc3c(C)c(C)ccc3c2o1` (stereo not drawn) [2-methyl-1-butyl ester of 7,8-dimethyl-5-hydroxy-quinolo[4,3-b]pyran-4-one-2-carboxylic acid] belongs 99.8%; to `CCC(C)COC(=O)c1cc(=O)c2c(O)nc3ccc(C)cc3c2o1` (stereo not drawn) [2-methyl-1-butyl ester of 9-methyl-5-hydroxy-quinolo[4,3-b]pyran-4-one-2-carboxylic acid], 83%. Same read-out and setting: to `Cc1ccc2c(nc(O)c3c(=O)cc(C(=O)OC(C)CC(C)C)oc32)c1C` (stereo not drawn) [4-methyl-2-pentyl ester of 7,8-dimethyl-5-hydroxy-quinolo[4,3-b]pyran-4-one-2-carboxylic acid] belongs 67.6%. The same measure, in the same setting: under `CCCCc1ccc2nc(O)c3c(=O)cc(C(=O)OCCC(C)C)oc3c2c1` [3-methyl-1-butyl ester of 9-n-butyl-5-hydroxy-quinolo[4,3-b]pyran-4-one-2-carboxylic acid] stands 64.5%; under `Cc1ccc2c(nc(O)c3c(=O)cc(C(=O)OCCC(C)C)oc32)c1C` [3-methyl-1-butyl ester of 7,8-dimethyl-5-hydroxy-quinolo[4,3-b]pyran-4-one-2-carboxylic acid], 95.5%; under `CCC(C)CCOC(=O)c1cc(=O)c2c(O)nc3c(C)c(C)ccc3c2o1` (stereo not drawn) [3-methyl-1-pentyl ester of 7,8-dimethyl-5-hydroxy-quinolo[4,3-b]pyran-4-one-2-carboxylic acid], 80.8%. Consider `Cc1ccc2nc(O)c3c(=O)cc(C(=O)OCCC(C)C)oc3c2c1` [3-methyl-1-butyl ester of 9-methyl-5-hydroxy-quinolo[4,3-b]pyran-4-one-2-carboxylic acid], for which the inhibition in vivo at 30 mg/kg was 87.2%. On the same count and under the same terms, to `CCCCCCCOC(=O)c1cc(=O)c2c(O)nc3c(C)c(C)ccc3c2o1` [n-heptyl ester of 7,8-dimethyl-5-hydroxy-quinolo[4,3-b]pyran-4-one-2-carboxylic acid, reference compound] belongs 36.3%; to `CCCCCCCCCCCCOC(=O)c1cc(=O)c2c(O)nc3c(C)c(C)ccc3c2o1` [n-dodecyl ester of 7,8-dimethyl-5-hydroxy-quinolo[4,3-b]pyran-4-one-2-carboxylic acid, reference compound], -26.2%; to `CCC(C)C(C)OC(=O)c1cc(=O)c2c(O)nc3c(C)c(C)ccc3c2o1` (stereo not drawn) [3-methyl-2-pentyl ester of 7,8-dimethyl-5-hydroxy-quinolo[4,3-b]pyran-4-one-2-carboxylic acid], 68.3%.

Staying with this experiment, now noted: 0.5 h, rat, 100 mg/kg, antigen 30 minutes after administration, read-out: Percent inhibition (%).
`Cc1ccc2c(nc(O)c3c(=O)cc(C(=O)O)oc32)c1C` [7,8-dimethyl-5-hydroxy-quinolo[4,3-b]pyran-4-one-2-carboxylic acid, reference compound]: the inhibition in vivo at 100 mg/kg stood at 5.5%. With `CCOC(=O)c1cc(=O)c2c(O)nc3c(C)c(C)ccc3c2o1` [ethyl ester of 7,8-dimethyl-5-hydroxy-quinolo[4,3-b]pyran-4-one-2-carboxylic acid, reference compound], the inhibition in vivo at 100 mg/kg was found to be 36.1%. Consider `Cc1ccc2c(nc(O)c3c(=O)cc(C(=O)OCC(O)CO)oc32)c1C` (stereo not drawn) [2,3-dihydroxy-propyl ester of 7,8-dimethyl-5-hydroxy-quinolo[4,3-b]pyran-4-one-2-carboxylic acid, reference compound], for which the inhibition in vivo at 100 mg/kg amounted to 8.6%. For `COC(=O)c1cc(=O)c2c(O)nc3c(C)c(C)ccc3c2o1` [methyl ester of 7,8-dimethyl-5-hydroxy-quinolo[4,3-b]pyran-4-one-2-carboxylic acid, reference compound], the inhibition in vivo at 100 mg/kg was found to be 39.4%. Still for that read-out and setting: to `Cc1ccc2c(nc(O)c3c(=O)cc(C(=O)OCCO)oc32)c1C` [2-hydroxy-ethyl ester of 7,8-dimethyl-5-hydroxy-quinolo[4,3-b]pyran-4-one-2-carboxylic acid, reference compound] belongs 21.4%.
